A short description of data set [1]: Cargo loading efficiency of Se-PCPP hydrogel (UV-Vis / ICP-OES). It is filed as physicochemical. The settings on record: UV-vis spectroscopy. As for the experimental part: Se-PCPP hydrogel: A mixture of 1 mL PCPP (4 mg·mL^−1, PBS) and 10.3 mg Na2HPO4 were mixed together and pH was adjusted to 7.4 by addition of HCl (1 M). Next, 1.4 μL of selenocystamine dihydrochloride (110 mg·mL^−1, PBS) were added to the mixture and vortexed for 30 seconds. The mixture was dropping into 10 mL of a CaCl2 (8.8%, DI H2O) and left to react under vigorous stirring for 20 minutes at room temperature. Finally, the solution was transferred to conical tubes and centrifuged at 2 k rpm for 8 min. The supernatant was discarded, and the pellet was re-suspended in DI water. After repeating this process three times, the Se-PCPP solution was re-suspended in DI water, vortexed at 14 k rpm and stored at 4° C. The final concentration of […] in the sample was determined using ICP-OES performed on a Spectro Genesis ICP.
Cargo loaded Se-PCPP hydrogel: For the cargo loaded Se-PCPP hydrogel, the PCPP (4 mg/mL, PBS) solution was mixed with the desired amount of cargo (solutions of doxorubicin, FITC-BSA or quisinostat at 1 mg/mL) and 10.3 mg Na2HPO4. The total volume was completed to 2 mL with PBS, pH was adjusted to 7.4 by addition of HCl (1 M) and incubated for 10 minutes before cross-linking with selenocystamine dihydrochloride as described above. The final drug concentration in the sample were determined using UV-Vis spectroscopy by determining the loading efficiency (LE), calculated as follows: % LE=([stock drug]−[non-loaded drug]/[stock drug])*100.

Data set [2] is described as follows: Hydrogel degradation and cargo release after X-ray irradiation. It is filed as physicochemical. As for the experimental part: X-ray irradiation The radiation dose delivered to the sample is quantified in gray (Gy) with the relation of 1 Gy=1 J/kg. The X-ray irradiation was performed on an X-RAD 320ix irradiator (PXi, North Branford, CT) operated at 320 kV, 12.5 mA, focal spot of 8 mm^2 and with an aluminum filter of 2 mm delivering a dosage rate of 2.65 Gy/minute. In brief, the Se-PCPP hydrogel was sampled into 1 mL tube and placed in the irradiator chamber for the desired time depending onto the X-ray dose to be delivered.
Se-PCPP hydrogel ([Au]=0.2 mg/mL) was suspended into 1 mL of freshly prepared PBS/10 FBS in micro-centrifuge tubes and centrifuged at 4 k rpm for 8 minutes. Samples were irradiated with the desired X-ray dose and incubated at 37° C. for the overall experiment time. At the desired time point, samples were vortexed, centrifuged at 4000 rpm for 8 minutes and the supernatant was gently collected for quantification of the released cargo by ICP-OES or UV-vis spectroscopy. 1 mL of freshly prepared incubation medium was rapidly added to each sample, all were incubated at 37° C. until the next time point.

For data set [3], the system named is U251 DR5-Luc cells. Put plainly: Cell based high throughput death receptor screen (DR5-Luc reporter bioluminescence). The conditions noted are these: compound at 100 nM, 24 h; positive control Tunicamycin 100 nM. The protocol: High throughput screening (HTS) was performed by the HTS core at the University of Pennsylvania. U251 DR5-Luc cells were plated at 2.0×10^3 cells/well across ten 384 well plates. Plates were then incubated in a humidified environment at 37° C. and 5% CO2 for twenty-four hours. Compound from the Selleckchem Bioactive Compound Library I was added to each well at 100 nM (approximately 3200 compounds). Tunicamycin (100 nM) and DMSO (0.1% v/v) served a positive and negative plate controls. Brite-Lite (PerkinElmer, Waltham, MA) reagent was added all plates twenty-four hours following the addition of compound, and plates were assayed on Envision Xcite (PerkinElmer) plate reader. The mean (μ) and standard deviation (σ) for each plate was used to transform total flux for each compound (xi) into z-scores using the formula z=(xi−μ/σ). Calculation of Z-prime for this screening assay was based upon the formula set forth by Zhang et al utilizing Tunicamycin and DMSO as a positive and negative controls respectively. Positive hits were identified as compounds that produced z-prime values greater than Tunicamycin. Reporter activity was validated following compound incubation and bioluminescence imaging on the IVIS spectrum (PerkinElmer).

Data set [4] relates to NS039. Kind of data set: Compound dilution studies and cell viability (Cell Titer Glo). It is filed as cell-based, human. The conditions noted are these: for IC50: NS039, 72 h. The protocol:
(§1) Cells were plated at density of 7.5-1.0×10^4 cells/well in 96 well plates using their respective media. Plates were then incubated in a humidified environment at 37° C. and 5% CO2 for twenty-four hours. An eleven-point dilution series of positive hits from our HTS screen was added to each plate. Cells treated with 0.1% DMSO served as a vehicle control. Plates were incubated with compound for seventy-two hours at 37° C. and 5% CO2, followed by addition of Cell Titer Glo® (Promega). Bio-luminescent readings were obtained using a Synergy HT luminometer (BioTek, Winooski, VT). Raw bio-luminescent values were normalized to their vehicle treated controls, and then fit to a modified Hill Equation using OriginPro 8 (OriginLab, Northampton, MA) in order to calculate IC50 values. All dilution series experiments were performed as biological triplicates.

In data set [5] the test system is T4213. Described as above. It is filed as cell-based. The conditions noted are these: for IC50: T4213, 72 h. As for the experimental part: as §1
Data set [6] has as its system CHOP and DR5. Kind of data set: Western blot analysis of CHOP and DR5. It is filed as cell-based. As for the experimental part:
Western blot analysis was performed using standard techniques as understood in the art, including those described at least by S. Sheikh et. al., Mol. Cancer Res. 2019, 17 (5), 1102-1114.
(A western blot detects proteins with antibodies after separation by electrophoresis.)

Data set [7] concerns T4213 and NS039 cells. Kind of data set: Sphere formation assay. The conditions noted are these: 1.0 μM. It is filed as cell-based. As for the experimental part:
T4213 and NS039 cells were plated at 2000 cells/well in six well plates in the presence of 0.1% DMSO or 1.0 μM Quisinostat in biological triplicate for twelve days. On day twelve, individual wells were imaged on a Lionheart Fx microscope at 4× magnification following addition of NucBlue™ (Hoechst 33342, Invitrogen). Circular blue objects greater than 50 μm in diameter and less than […] were counted as neurospheres. Differences in sphere formation between cells and treatments were assessed using a one-way ANOVA followed by post-hoc Tukey's test in GraphPad Prism 8. P-values less than 0.05 were considered significant.

Data set [8] concerns Patient-derived glioblastoma organoids (GBOs). Put plainly: Brain tumor organoids, compound incubation, viability and immunofluorescence. It is filed as cell-based, human. The conditions noted are these: 1.0 μM. As for the experimental part: Glioblastoma organoids (GBOs) were generated from primary brain tumor as previously described.3 Briefly, primary brain tumor specimens were minced into approximately 1 mm pieces following clinical confirmation of pathologic diagnosis and incubated in GBO medium containing 50% DMEM:F12 (Thermo Fisher Scientific), 50% Neurobasal (Thermo Fisher Scientific), 1× GlutaMax (Thermo Fisher Scientific), 1× NEAAs (Thermo Fisher Scientific), 1× PenStrep (Thermo Fisher Scientific), 1× N2 supplement (Thermo Fisher Scientific), 1× B27 w/o vitamin A supplement (Thermo Fisher Scientific), 1× 2-mercaptoethanol (Thermo Fisher Scientific), and […] human insulin (Sigma) per well and placed on an orbital shaker rotating at 120 rpm within a 37° C., 5% CO2, and 90% humidity sterile incubator. Organoids would generally form 2-4 weeks following initial culturing. Organoids were then incubated in GBO containing media containing either DMSO (0.1%) or 1.0 μM quisinostat with media changes every two days for seven days total. Post-treatment images were taken on brightfield microscope and samples were subsequently fixed in 4% paraformaldehyde×30 minutes for immunofluorescence analysis.
Serial tissue sections (20 μm) were sliced using a cryostat (Leica, CM3050S), and melted onto charged slides (Thermo Fisher Scientific). Slides were dried at room temperature and stored at −20° C. until ready for immunohistology. For immunofluorescence staining, the tissue sections were outlined with a hydrophobic pen (Vector Laboratories) and washed with TBS containing 0.1% Tween-20 (v/v). Non-specific binding was blocked using a solution containing 10% donkey serum (v/v), 0.5% Triton X-100 (v/v), 1% BSA (w/v), 0.1% gelatin (w/v), and 22.52 mg/ml glycine in TBST for 1 hour at room temperature. […]
GBOs were imaged on a Zeiss LSM 710 confocal microscope (Zeiss) using a 20× objective with Zen 2 software (Zeiss). Images were quantified and analyzed using ImageJ software. […]

The test system of data set [9] is T4213 orthotopic tumor. Kind of data set: Orthotopic tumor implantation and treatment with Quisinostat. It is filed as in vivo, athymic nude mice. The source says:
T4213 cells were stably modified using a lentiviral vector containing GFP and Luciferase (Biosettia, San Diego, CA). Cells were resuspended in serum free media, and then 3.0×10^5 cells were stereotactically injected into the right striatum of five-week female athymic nude mice (Charles River Labs). Tumor bioluminescence was quantified on the IVIS spectrum (PerkinElmer, Hopkinton, MA) following intraperitoneal administration of D-Luciferin (Goldbio, St Louis MO) two days following cell implantation. In a separate experiment, mice underwent serial bioluminescent imaging following orthotopic T4213 implantation. Mice were assigned to different treatment groups such that the total flux (photons/s) was equivalent between groups (6.4×10^6 photons/s). Treatment was initiated immediately following bioluminescent imaging, and consisted of once daily intraperitoneal administration of 2-Hydroxypropyl-β-cyclodextrin (vehicle, Cayman Chemical, Ann Arbor MI) or 10 mg/kg Quisinostat (Cayman Chemical) for a total of eight doses (FIG. 5A). […] Bioluminescent imaging was repeated seventy-two hours after the last treatment was administered. […] Serial bioluminescence was assessed using a one-way repeated measures ANOVA followed by a post-hoc Tukey test. Post-treatment total flux was background corrected, and the percent change in total flux was analyzed using a Mann-Whitney U test. […]

Regarding `COc1cccc2c1C(=O)c1c(O)c3c(c(O)c1C2=O)C[C@@](O)(C(=O)CO)C[C@@H]3O[C@H]1C[C@H](N)[C@H](O)[C@H](C)O1` [doxorubicin], the “loading efficiency in Se-PCPP hydrogel” value in [1] worked out at 74%.
Turning to FITC-BSA, in data set [1], the “loading efficiency in Se-PCPP hydrogel” value was found to be 91%. In addition, the “delivery profile from Se-PCPP hydrogel” value in data set [2] is “slower than both quisinostat and doxorubicin”.
Regarding `O=C(/C=C/c1ccc(CN(CCO)CCc2c[nH]c3ccccc23)cc1)NO` [Dacinostat], the “bioluminescent signal in cell-based death receptor assay” value (“bioluminescent signal” below) in data set [3] was “greater than our positive control Tunicamycin”.
Turning to `Cn1cc(CNCC2CCN(c3ncc(C(=O)NO)cn3)CC2)c2ccccc21` [Quisinostat], the “bioluminescent signal” value in [3] was “greater than our positive control Tunicamycin”. The IC50 entry in data set [4] and in data set [5] was “single digit nanomolar” throughout. In data set [4] (normal human astrocytes vs NS039), the “therapeutic window (ratio of IC50s between NHA and NS039)” value was “favorable therapeutic window”. Moreover, in data set [5] (normal human astrocytes vs T4213), the “therapeutic window (ratio of IC50s between NHA and T4213)” value was “favorable therapeutic window”. Further, the “CHOP dependent DR5 expression” value in data set [6] is “at nanomolar concentrations”. In data set [7] (Hoechst staining), the “cell morphology, sphere formation and integrity” value is “shrunken and fragmented cell morphology”. Besides, the neurosphere formation in [7] (twelve days, control 120-130 neurospheres per well, p<0.05) is given as 4-27 neurospheres per well. In data set [8] (five distinct GBO lines), the Caspase staining result is recorded as “increased”. In addition, the Ki67 staining entry in [8] (five distinct GBO lines) is “decreased”. In [8] (seven days), the organoid size entry is recorded as “noticeably shrink”. Moreover, in data set [9] (10 mg/kg once daily intraperitoneal with breaks, seventy-two hours after last treatment), the tumor bioluminescence result is on record as “significant reduction”. In addition, the mouse body weight result in data set [9] (systemic administration) is “reduction of mouse body weight”. Also, the “loading efficiency in Se-PCPP hydrogel” value in data set [1] came out at 81%.
Regarding `CCS(=O)(=O)Nc1ccc(Oc2ccc(F)cc2F)c(-c2cn(C)c(=O)c3[nH]ccc23)c1` [ABBV-075], the “bioluminescent signal” value in data set [3] is “greater than our positive control Tunicamycin”.
In the case of `COc1ccc(-c2nc(N3CCOCC3)c3sc(CN(C)c4ncc(C(=O)NO)cn4)cc3n2)cn1` [CUDC-907], the “bioluminescent signal” value in data set [3] was “greater than our positive control Tunicamycin”. Moreover, the IC50 entry in [4] and in [5] was “single digit nanomolar” throughout.

Source of the values: patent publication US12486401B2, “‘Smart’ hydrogel for the radiosensitization and sustained delivery of therapeutics triggered by irradiation” (The Trustees of the University of Pennsylvania, priority 2019, dated 2025).
